# Key:
# Shp2 PTP [1] = molecular target: T1, Shp2 PTP (Homo sapiens, UniProt Q06124); test: Shp2 PTP inhibition assay; format: biochemical; settings: for Inhibition of Shp2 PTP activity at the highest concentration tested: 300 µM
# T1 sequence (Q06124 1-593): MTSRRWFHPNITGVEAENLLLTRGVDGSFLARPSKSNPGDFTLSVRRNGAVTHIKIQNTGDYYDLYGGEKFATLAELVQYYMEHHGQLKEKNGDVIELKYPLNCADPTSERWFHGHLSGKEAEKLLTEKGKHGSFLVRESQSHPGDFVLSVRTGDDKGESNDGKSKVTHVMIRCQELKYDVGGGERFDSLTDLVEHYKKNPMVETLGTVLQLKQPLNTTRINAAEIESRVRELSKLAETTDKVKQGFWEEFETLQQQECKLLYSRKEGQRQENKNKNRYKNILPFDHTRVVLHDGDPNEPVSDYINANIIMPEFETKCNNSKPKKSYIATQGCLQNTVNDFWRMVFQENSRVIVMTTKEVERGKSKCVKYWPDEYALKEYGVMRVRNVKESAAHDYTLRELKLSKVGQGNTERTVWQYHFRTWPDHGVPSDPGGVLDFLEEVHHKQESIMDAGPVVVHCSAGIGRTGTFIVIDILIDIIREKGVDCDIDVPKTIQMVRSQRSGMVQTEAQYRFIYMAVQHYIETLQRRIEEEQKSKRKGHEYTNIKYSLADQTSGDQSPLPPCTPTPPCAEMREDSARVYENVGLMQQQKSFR
# Shp2 = molecular target: T2, Shp2 (Homo sapiens, UniProt Q06124); test: Surface plasmon resonance; format: binding; settings: SPR
# T2 sequence (Q06124 1-593): T1 sequence (Q06124 1-593)
# Shp2 PTP [2] = molecular target: T1, Shp2 PTP; test: Enzyme kinetic assay using DiFMUP as the substrate; format: biochemical
smiles,measurement,setting,value
"C[C@]12CC[C@@H]3c4ccc(O)cc4CC[C@H]3[C@@H]1CC[C@@H]2O [Estradiol, estradiol]",Inhibition of Shp2 PTP activity at the highest concentration tested,Shp2 PTP [1],did not inhibit
CC1=C(O)C(=O)C=C2C1=CC=C1[C@@]2(C)CC[C@@]2(C)[C@@H]3C[C@@H](C)C(=O)C[C@]3(C)CC[C@]12C [Maitenin],Fold less potent than celastrol in Shp2 inhibition,Shp2 PTP [1],18 fold
"C[C@]12CC[C@@H]3c4ccc(OC(=O)N(CCCl)CCCl)cc4CC[C@H]3[C@@H]1CC[C@@H]2OP(=O)(O)O [Estramustine phosphate, estramustine phosphate]",association rate constant ka,Shp2,2200 M⁻¹ s⁻¹
same,Ki,Shp2 PTP [2],22.8 µM
same,Inhibition kinetics (best fit),Shp2 PTP [2]; DiFMUP substrate,mixed inhibition kinetics
COc1ccc2c(c1)CC[C@@H]1[C@@H]2CC[C@@]2(C)[C@H]1CC[C@@]21CCNP(=O)(N(CCCl)CCCl)O1 (stereo partly shown) [NSC233064],Inhibition of Shp2 PTP activity at the highest concentration tested,Shp2 PTP [1],did not inhibit
"C[C@]12CC[C@@H]3c4ccc(OC(=O)N(CCCl)CCCl)cc4CC[C@H]3[C@@H]1CC[C@@H]2O [Estramustine, estramustine]",Inhibition of Shp2 PTP activity at the highest concentration tested,Shp2 PTP [1],did not inhibit

# Source: paper PMC3034307 (Bioorganic & medicinal chemistry letters, 2010)
